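Test compounds were applied to cells in 96-well plates for 48 hours at 5 doses. GI50 marks 50% less growth.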 Activity calls are given as the source filed them. Cut-off read from the data, not from the text of the source: active = GI50 up to about 1.1 µM and inactive = higher.
Legend:
Experiment in all cases: NCI anticancer screen, dose series, 48 h
786-0 = tested on: 786-0
A498 = tested on: A498
A549 = tested on: A549
ACHN = tested on: ACHN
BT-549 = tested on: BT-549
CAKI-1 = tested on: CAKI-1
CCRF-CEM = tested on: CCRF-CEM
COLO 205 = tested on: COLO 205
DU-145 = tested on: DU-145
EKVX = tested on: EKVX
HCC 2998 = tested on: HCC 2998
HCT-116 = tested on: HCT-116
HCT-15 = tested on: HCT-15
HL-60 = tested on: HL-60
HOP-62 = tested on: HOP-62
HOP-92 = tested on: HOP-92
HT-29 = tested on: HT-29
Hs-578T = tested on: Hs-578T
IGROV-1 = tested on: IGROV-1
K562 = tested on: K562
KM12 = tested on: KM12
LOX IMVI = tested on: LOX IMVI
M14 = tested on: M14
MCF7 = tested on: MCF7
MDA-MB-231 = tested on: MDA-MB-231
MDA-MB-435 = tested on: MDA-MB-435
MDA-N = tested on: MDA-N
MOLT-4 = tested on: MOLT-4
Malme-3M = tested on: Malme-3M
NCI-H226 = tested on: NCI-H226
NCI-H23 = tested on: NCI-H23
NCI-H460 = tested on: NCI-H460
NCI-H522 = tested on: NCI-H522
NCI/ADR-RES = tested on: NCI/ADR-RES
OVCAR-3 = tested on: OVCAR-3
OVCAR-4 = tested on: OVCAR-4
OVCAR-5 = tested on: OVCAR-5
OVCAR-8 = tested on: OVCAR-8
PC-3 = tested on: PC-3
RPMI-8226 = tested on: RPMI-8226
RXF 393 = tested on: RXF 393
SF-268 = tested on: SF-268
SF-295 = tested on: SF-295
SF-539 = tested on: SF-539
SK-MEL-28 = tested on: SK-MEL-28
SK-MEL-2 = tested on: SK-MEL-2
SK-MEL-5 = tested on: SK-MEL-5
SK-OV-3 = tested on: SK-OV-3
SN12C = tested on: SN12C
SNB-19 = tested on: SNB-19
SNB-75 = tested on: SNB-75
SR = tested on: SR
SW-620 = tested on: SW-620
T47D = tested on: T47D
TK-10 = tested on: TK-10
U-251 = tested on: U-251
UACC-257 = tested on: UACC-257
UACC-62 = tested on: UACC-62
UO-31 = tested on: UO-31

`CCOP(=O)(OCC)C(Nc1ccc(F)cc1)c1ccccc1` (configuration not stated) was tested, and the GI50 (786-0) was > 100 µM (inactive), the GI50 (A498) was > 100 µM (inactive) and the GI50 (A549) was > 100 µM (inactive). For the same compound, the GI50 (ACHN) was > 100 µM (inactive), the GI50 (BT-549) was 79.6 µM (inactive) and the GI50 (CAKI-1) was > 100 µM (inactive). For the same compound, the GI50 (CCRF-CEM) was > 100 µM (inactive), the GI50 (COLO 205) was > 100 µM (inactive) and the GI50 (DU-145) was > 100 µM (inactive). The GI50 (EKVX) was > 100 µM (inactive), the GI50 (HCC 2998) was > 100 µM (inactive) and the GI50 (HCT-116) was > 100 µM (inactive). The GI50 (HCT-15) was > 100 µM, the GI50 (HL-60) was 77.4 µM (inactive) and the GI50 (HOP-62) was > 100 µM (inactive). The GI50 (HOP-92) was 94.6 µM (inactive), the GI50 (HT-29) was > 100 µM (inactive) and the GI50 (Hs-578T) was > 100 µM (inactive). For the same compound, the GI50 (IGROV-1) was > 100 µM (inactive), the GI50 (K562) was 57.9 µM (inactive) and the GI50 (KM12) was > 100 µM (inactive). The GI50 (LOX IMVI) was > 100 µM (inactive), the GI50 (M14) was > 100 µM (inactive) and the GI50 (MCF7) was > 100 µM (inactive). For the same compound, the GI50 (MDA-MB-231) was > 100 µM (inactive), the GI50 (MDA-MB-435) was > 100 µM (inactive) and the GI50 (MDA-N) was 79.3 µM (inactive). For the same compound, the GI50 (MOLT-4) was 92.9 µM (inactive), the GI50 (Malme-3M) was > 100 µM (inactive) and the GI50 (NCI-H226) was > 100 µM (inactive). For the same compound, the GI50 (NCI-H23) was > 100 µM (inactive), the GI50 (NCI-H460) was > 100 µM (inactive) and the GI50 (NCI-H522) was 56.5 µM (inactive). The GI50 (NCI/ADR-RES) was > 100 µM (inactive), the GI50 (OVCAR-3) was > 100 µM (inactive) and the GI50 (OVCAR-4) was > 100 µM (inactive). The GI50 (OVCAR-5) was > 100 µM (inactive), the GI50 (OVCAR-8) was > 100 µM (inactive) and the GI50 (PC-3) was 32 µM (inactive). For the same compound, the GI50 (RPMI-8226) was > 100 µM (inactive), the GI50 (RXF 393) was > 100 µM (inactive) and the GI50 (SF-268) was > 100 µM (inactive). For the same compound, the GI50 (SF-295) was > 100 µM (inactive), the GI50 (SF-539) was > 100 µM (inactive) and the GI50 (SK-MEL-28) was > 100 µM (inactive). For the same compound, the GI50 (SK-MEL-2) was > 100 µM (inactive), the GI50 (SK-MEL-5) was > 100 µM (inactive) and the GI50 (SK-OV-3) was > 100 µM (inactive). For the same compound, the GI50 (SN12C) was 43.8 µM (inactive), the GI50 (SNB-19) was > 100 µM (inactive) and the GI50 (SNB-75) was > 100 µM (inactive). The GI50 (SR) was 97.7 µM (inactive), the GI50 (SW-620) was > 100 µM (inactive) and the GI50 (T47D) was 35.1 µM (inactive). For the same compound, the GI50 (TK-10) was > 100 µM (inactive), the GI50 (U-251) was > 100 µM (inactive) and the GI50 (UACC-257) was > 100 µM (inactive). The GI50 (UACC-62) was > 100 µM (inactive) and the GI50 (UO-31) was 82.2 µM (inactive).
`CN(C)Cc1cc(C(=O)/C=C/c2ccccc2Cl)cc(CN(C)C)c1O` was tested, and the GI50 (786-0) was 7.36 µM (inactive), the GI50 (A498) was 12.9 µM (inactive) and the GI50 (A549) was 14.9 µM (inactive). For the same compound, the GI50 (ACHN) was 4.45 µM (inactive), the GI50 (BT-549) was 8.51 µM (inactive) and the GI50 (CAKI-1) was 3.56 µM (inactive). The GI50 (CCRF-CEM) was 3.4 µM (inactive), the GI50 (COLO 205) was 4.23 µM (inactive) and the GI50 (DU-145) was 12.3 µM (inactive). For the same compound, the GI50 (EKVX) was 14.7 µM (inactive), the GI50 (HCC 2998) was 20.2 µM (inactive) and the GI50 (HCT-116) was 5.42 µM (inactive). For the same compound, the GI50 (HCT-15) was 14.7 µM, the GI50 (HL-60) was 4.3 µM (inactive) and the GI50 (HOP-62) was 8.15 µM (inactive). The GI50 (HOP-92) was 18.1 µM (inactive), the GI50 (HT-29) was 3.13 µM (inactive) and the GI50 (Hs-578T) was 18.3 µM (inactive). The GI50 (IGROV-1) was 13.6 µM (inactive), the GI50 (K562) was 4.79 µM (inactive) and the GI50 (KM12) was 7.8 µM (inactive). The GI50 (LOX IMVI) was 3.33 µM (inactive), the GI50 (M14) was 11.2 µM (inactive) and the GI50 (MCF7) was 9.66 µM (inactive). For the same compound, the GI50 (MDA-MB-231) was 12.2 µM (inactive), the GI50 (MDA-MB-435) was 13.5 µM (inactive) and the GI50 (MDA-N) was 13 µM (inactive). The GI50 (MOLT-4) was 10.9 µM (inactive), the GI50 (Malme-3M) was 11 µM (inactive) and the GI50 (NCI-H226) was 24.3 µM (inactive). For the same compound, the GI50 (NCI-H23) was 14.5 µM (inactive), the GI50 (NCI-H460) was 4.6 µM (inactive) and the GI50 (NCI-H522) was 3.93 µM (inactive). The GI50 (NCI/ADR-RES) was 12.8 µM (inactive), the GI50 (OVCAR-3) was 7.93 µM (inactive) and the GI50 (OVCAR-5) was 23.1 µM (inactive). The GI50 (OVCAR-8) was 10.1 µM (inactive), the GI50 (PC-3) was 13.2 µM (inactive) and the GI50 (RPMI-8226) was 13.8 µM (inactive). The GI50 (RXF 393) was 17.1 µM (inactive), the GI50 (SF-268) was 15.9 µM (inactive) and the GI50 (SF-295) was 14.6 µM (inactive). For the same compound, the GI50 (SF-539) was 15.5 µM (inactive), the GI50 (SK-MEL-28) was 14.7 µM (inactive) and the GI50 (SK-MEL-5) was 11.8 µM (inactive). The GI50 (SN12C) was 9.16 µM (inactive), the GI50 (SNB-19) was 13.9 µM (inactive) and the GI50 (SNB-75) was 5.51 µM (inactive). The GI50 (SR) was 5.6 µM (inactive), the GI50 (SW-620) was 4.86 µM (inactive) and the GI50 (T47D) was > 10 µM (inactive). For the same compound, the GI50 (TK-10) was 19.7 µM (inactive), the GI50 (U-251) was 13.8 µM (inactive) and the GI50 (UACC-257) was 15.4 µM (inactive). For the same compound, the GI50 (UO-31) was 10.6 µM (inactive).
In the case of `O=C(CSc1nc2ccc(I)cc2c(=O)n1Cc1ccccc1)NN1C(=O)c2ccccc2C1=O`, the GI50 (786-0) is reported as 6.04 µM (inactive), the GI50 (A498) is reported as 14.8 µM (inactive) and the GI50 (A549) is reported as 18 µM (inactive). For the same compound, the GI50 (ACHN) was 18.9 µM (inactive), the GI50 (BT-549) was 15.4 µM (inactive) and the GI50 (CAKI-1) was 9.23 µM (inactive). For the same compound, the GI50 (COLO 205) was 25.5 µM (inactive), the GI50 (DU-145) was 25.4 µM (inactive) and the GI50 (EKVX) was 12.9 µM (inactive). The GI50 (HCC 2998) was 28.8 µM (inactive), the GI50 (HCT-116) was 16.7 µM (inactive) and the GI50 (HCT-15) was 30.1 µM. For the same compound, the GI50 (HL-60) was 16.7 µM (inactive), the GI50 (HOP-62) was 4.75 µM (inactive) and the GI50 (HOP-92) was 14.4 µM (inactive). The GI50 (HT-29) was 24.8 µM (inactive), the GI50 (Hs-578T) was 6.47 µM (inactive) and the GI50 (IGROV-1) was 19.3 µM (inactive). For the same compound, the GI50 (K562) was 31 µM (inactive), the GI50 (KM12) was 31.2 µM (inactive) and the GI50 (LOX IMVI) was 15 µM (inactive). The GI50 (M14) was 28.5 µM (inactive), the GI50 (MCF7) was 23.3 µM (inactive) and the GI50 (MDA-MB-231) was 11.2 µM (inactive). The GI50 (MDA-MB-435) was 34.4 µM (inactive), the GI50 (MDA-N) was 37.3 µM (inactive) and the GI50 (MOLT-4) was 28.4 µM (inactive). For the same compound, the GI50 (Malme-3M) was 18.2 µM (inactive), the GI50 (NCI-H226) was 6.3 µM (inactive) and the GI50 (NCI-H23) was 18.2 µM (inactive). The GI50 (NCI-H460) was 22.9 µM (inactive), the GI50 (NCI-H522) was 14.9 µM (inactive) and the GI50 (NCI/ADR-RES) was 15.5 µM (inactive). The GI50 (OVCAR-3) was 11.6 µM (inactive), the GI50 (OVCAR-4) was 12.2 µM (inactive) and the GI50 (OVCAR-5) was 26.2 µM (inactive). For the same compound, the GI50 (OVCAR-8) was 11.8 µM (inactive), the GI50 (PC-3) was 4.09 µM (inactive) and the GI50 (RPMI-8226) was 33.3 µM (inactive). For the same compound, the GI50 (RXF 393) was 8.3 µM (inactive), the GI50 (SF-268) was 8.85 µM (inactive) and the GI50 (SF-295) was 10.6 µM (inactive). For the same compound, the GI50 (SF-539) was 3.42 µM (inactive), the GI50 (SK-MEL-28) was 17.9 µM (inactive) and the GI50 (SK-MEL-2) was 10.8 µM (inactive). The GI50 (SK-MEL-5) was 18.1 µM (inactive), the GI50 (SK-OV-3) was 11.6 µM (inactive) and the GI50 (SN12C) was 18.8 µM (inactive). The GI50 (SNB-19) was 16.5 µM (inactive), the GI50 (SNB-75) was 4.3 µM (inactive) and the GI50 (SR) was 25.7 µM (inactive). For the same compound, the GI50 (SW-620) was 27.5 µM (inactive), the GI50 (T47D) was 15.8 µM (inactive) and the GI50 (TK-10) was 13.7 µM (inactive). For the same compound, the GI50 (U-251) was 12.7 µM (inactive), the GI50 (UACC-257) was 17.5 µM (inactive) and the GI50 (UACC-62) was 24.9 µM (inactive). The GI50 (UO-31) was 2.37 µM (inactive).

— ChEMBL document CHEMBL1201862, “PubChem BioAssay data set” (2004)
